Molecules are shown by their SMILES.

We go through 30 compounds from US20250066350A1, “AROMATIC HETEROCYCLE-SUBSTITUTED COMPOUNDS, AND PREPARATION METHOD THEREFOR AND USE THEREOF” (Innovstone Therapeutics Limited, priority 2021, published 2025).

One assay has as its system LoVo cells. In words: LoVo cell proliferation experiment (CellTiter-Glo, intracellular ATP). In kind it is cell-based. The conditions noted are these: 96 h; LoVo human colon cancer cells, 4 days; read-out: IC50 for inhibition of LoVo cell proliferation. Here is the method:
The following method is used to evaluate the inhibitory effect of the compounds of the present invention on LoVo cell proliferation according to the IC50 values by means of detecting the intracellular ATP content. The experimental method is briefly described as follows:
1. LoVo, human colon cancer tumor cells (Co-bioer, CBP60032)
LoVo cells were cultured in F-12K medium containing 10% FBS and passaged 2 to 3 times a week at a split ratio of 1:3 or 1:5. During passage, the cells were trypsinized and transferred to a centrifuge tube. The tube was centrifuged at 1000 rpm for 5 minutes, the supernatant medium was discarded, and fresh medium was added to resuspend the cells. 100 μL of cell suspension at a density of 1.5×10^4 cells/mL was added to a 96-well cell culture plate, and 100 μL of complete medium only was added to the periphery wells of the 96-well plate. The culture plate was incubated in an incubator for 24 hours (37° C., 5% CO2).
The sample to be tested was diluted to 1 mM with DMSO, diluted 3-fold serially to 8 concentrations, and prepared to 200× dilution with cell culture medium. Blank and control wells were set. 5 μL of the solution containing the compound to be tested prepared in gradient concentrations was added to 95 μL of fresh medium. 100 μL of 1× culture medium containing the compound was added to the culture plate. The culture plate was incubated in an incubator for 4 days (37° C., 5% CO2). 50 μL of CellTiter-Glo reagent was added to each well of the 96-well cell culture plate, and the plate was placed at room temperature in the dark for 5-10 min. The chemiluminescent signal values were read in PHERAstar, and data were processed using GraphPad software.
The inhibitory effect of the compounds of the present invention on LoVo cell proliferation can be determined by the test described above, and the measured IC50 values are shown in Table 2.

The subject of a further assay is SNU-601 cells. In words: SNU-601 cell proliferation experiment (CellTiter-Glo, intracellular ATP). It counts as cell-based. The conditions noted are these: 120 h; SNU-601 human gastric cancer cells, 5 days; read-out: IC50 for inhibition of SNU-601 cell proliferation. Here is the method: The following method is used to evaluate the inhibitory effect of the compounds of the present disclosure on SNU-601 cell proliferation according to the IC50 values by means of detecting the intracellular ATP content. The experimental method is briefly described as follows:
1. SNU-601, human gastric cancer tumor cells (Co-bioer, CBP60507)
SNU-601 cells were cultured in RPMI 1640 medium containing 10% FBS and passaged 2 to 3 times a week at a split ratio of 1:5 or 1:10. During passage, the cells were trypsinized and transferred to a centrifuge tube. The tube was centrifuged at 1000 rpm for 5 minutes, the supernatant medium was discarded, and fresh medium was added to resuspend the cells. 195 μL of cell suspension at a density of 5.128×10^3 cells/mL was added to a 96-well cell culture plate, and 200 μL of complete medium only was added to the periphery wells of the 96-well plate. The culture plate was incubated in an incubator for 24 hours (37° C., 5% CO2).
The sample to be tested was diluted to 2 mM with DMSO, diluted 3-fold serially to 10 concentrations. Blank and control wells were set. 10 μL of the solution containing the compound to be tested prepared in gradient concentrations was added to 50 μL of fresh medium. 5 μL of the above culture medium solution containing the compound was added to the culture plate. The culture plate was incubated in an incubator for 5 days (37° C., 5% CO2). 50 μL of CellTiter-Glo reagent was added to each well of the 96-well cell culture plate after discarding 100 μL/well, and the plate was shaken at room temperature in the dark for 10 min. The chemiluminescent signal values were read in PHERAstar, and data were processed using GraphPad software.
The inhibitory effect of the compounds of the present invention on SNU-601 cell proliferation can be determined by the test described above, and the measured IC50 values are shown in Table 3.

The next assay concerns the target ATR enzyme (Homo sapiens (Human), UniProt Q13535). In words: Inhibitory effect on ATR enzyme (HTRF, phospho-P53). It counts as biochemical. The conditions noted are these: 90 minutes incubation, 150 nM ATP final; read-out: IC50 for ATR enzyme inhibition. As to the method:
Test Example 1. Inhibitory Effect of Compounds of the Present Invention on ATR Enzyme
The following method is used to determine the inhibitory effect of the compounds of the present invention on the ATR enzyme. The experimental method is briefly described as follows:
1. ATR enzyme (Eurofins Pharma Discovery Services, 14-953M)
2. GST-tagged P53 protein (Eurofins Pharma Discovery Services, 14-952M)
15 nM ATR enzyme, 80 nM P53 protein, 300 nM ATP (the final concentrations were 40 nM and 150 nM, respectively), and small molecule compounds of various concentrations (the final concentrations (nM) of the ten points were 2985.0, 895.5, 298.5, 110.56, 33.17, 11.06, 4.09, 1.23, 0.41 and 0.15, respectively, and the final dimethyl sulfoxide concentration was 0.498%) were mixed and incubated at room temperature for 90 minutes. 10 μL of 2× cocktail buffer was added to the mixture of ATR, compound and substrate in the assay plate (anti-phospho-p53-Eu and anti-GST-d2 were diluted in the assay buffer). The resulting mixture was centrifuged at 1000 rpm for 30 seconds, and incubated overnight at 4° C. in the dark (a total of 20 μl in each well). The FRET signal (endpoint) was measured in the Envision instrument (HTRF 665/612 ratio was calculated at 665 nm emission and 612 nm emission). Data were processed using GraphPad software.
The inhibitory activity of the compounds of the present invention on the ATR enzyme can be determined by the test described above, and the measured IC50 values are shown in Table 1.

Sequence of ATR enzyme (Q13535 whole entry): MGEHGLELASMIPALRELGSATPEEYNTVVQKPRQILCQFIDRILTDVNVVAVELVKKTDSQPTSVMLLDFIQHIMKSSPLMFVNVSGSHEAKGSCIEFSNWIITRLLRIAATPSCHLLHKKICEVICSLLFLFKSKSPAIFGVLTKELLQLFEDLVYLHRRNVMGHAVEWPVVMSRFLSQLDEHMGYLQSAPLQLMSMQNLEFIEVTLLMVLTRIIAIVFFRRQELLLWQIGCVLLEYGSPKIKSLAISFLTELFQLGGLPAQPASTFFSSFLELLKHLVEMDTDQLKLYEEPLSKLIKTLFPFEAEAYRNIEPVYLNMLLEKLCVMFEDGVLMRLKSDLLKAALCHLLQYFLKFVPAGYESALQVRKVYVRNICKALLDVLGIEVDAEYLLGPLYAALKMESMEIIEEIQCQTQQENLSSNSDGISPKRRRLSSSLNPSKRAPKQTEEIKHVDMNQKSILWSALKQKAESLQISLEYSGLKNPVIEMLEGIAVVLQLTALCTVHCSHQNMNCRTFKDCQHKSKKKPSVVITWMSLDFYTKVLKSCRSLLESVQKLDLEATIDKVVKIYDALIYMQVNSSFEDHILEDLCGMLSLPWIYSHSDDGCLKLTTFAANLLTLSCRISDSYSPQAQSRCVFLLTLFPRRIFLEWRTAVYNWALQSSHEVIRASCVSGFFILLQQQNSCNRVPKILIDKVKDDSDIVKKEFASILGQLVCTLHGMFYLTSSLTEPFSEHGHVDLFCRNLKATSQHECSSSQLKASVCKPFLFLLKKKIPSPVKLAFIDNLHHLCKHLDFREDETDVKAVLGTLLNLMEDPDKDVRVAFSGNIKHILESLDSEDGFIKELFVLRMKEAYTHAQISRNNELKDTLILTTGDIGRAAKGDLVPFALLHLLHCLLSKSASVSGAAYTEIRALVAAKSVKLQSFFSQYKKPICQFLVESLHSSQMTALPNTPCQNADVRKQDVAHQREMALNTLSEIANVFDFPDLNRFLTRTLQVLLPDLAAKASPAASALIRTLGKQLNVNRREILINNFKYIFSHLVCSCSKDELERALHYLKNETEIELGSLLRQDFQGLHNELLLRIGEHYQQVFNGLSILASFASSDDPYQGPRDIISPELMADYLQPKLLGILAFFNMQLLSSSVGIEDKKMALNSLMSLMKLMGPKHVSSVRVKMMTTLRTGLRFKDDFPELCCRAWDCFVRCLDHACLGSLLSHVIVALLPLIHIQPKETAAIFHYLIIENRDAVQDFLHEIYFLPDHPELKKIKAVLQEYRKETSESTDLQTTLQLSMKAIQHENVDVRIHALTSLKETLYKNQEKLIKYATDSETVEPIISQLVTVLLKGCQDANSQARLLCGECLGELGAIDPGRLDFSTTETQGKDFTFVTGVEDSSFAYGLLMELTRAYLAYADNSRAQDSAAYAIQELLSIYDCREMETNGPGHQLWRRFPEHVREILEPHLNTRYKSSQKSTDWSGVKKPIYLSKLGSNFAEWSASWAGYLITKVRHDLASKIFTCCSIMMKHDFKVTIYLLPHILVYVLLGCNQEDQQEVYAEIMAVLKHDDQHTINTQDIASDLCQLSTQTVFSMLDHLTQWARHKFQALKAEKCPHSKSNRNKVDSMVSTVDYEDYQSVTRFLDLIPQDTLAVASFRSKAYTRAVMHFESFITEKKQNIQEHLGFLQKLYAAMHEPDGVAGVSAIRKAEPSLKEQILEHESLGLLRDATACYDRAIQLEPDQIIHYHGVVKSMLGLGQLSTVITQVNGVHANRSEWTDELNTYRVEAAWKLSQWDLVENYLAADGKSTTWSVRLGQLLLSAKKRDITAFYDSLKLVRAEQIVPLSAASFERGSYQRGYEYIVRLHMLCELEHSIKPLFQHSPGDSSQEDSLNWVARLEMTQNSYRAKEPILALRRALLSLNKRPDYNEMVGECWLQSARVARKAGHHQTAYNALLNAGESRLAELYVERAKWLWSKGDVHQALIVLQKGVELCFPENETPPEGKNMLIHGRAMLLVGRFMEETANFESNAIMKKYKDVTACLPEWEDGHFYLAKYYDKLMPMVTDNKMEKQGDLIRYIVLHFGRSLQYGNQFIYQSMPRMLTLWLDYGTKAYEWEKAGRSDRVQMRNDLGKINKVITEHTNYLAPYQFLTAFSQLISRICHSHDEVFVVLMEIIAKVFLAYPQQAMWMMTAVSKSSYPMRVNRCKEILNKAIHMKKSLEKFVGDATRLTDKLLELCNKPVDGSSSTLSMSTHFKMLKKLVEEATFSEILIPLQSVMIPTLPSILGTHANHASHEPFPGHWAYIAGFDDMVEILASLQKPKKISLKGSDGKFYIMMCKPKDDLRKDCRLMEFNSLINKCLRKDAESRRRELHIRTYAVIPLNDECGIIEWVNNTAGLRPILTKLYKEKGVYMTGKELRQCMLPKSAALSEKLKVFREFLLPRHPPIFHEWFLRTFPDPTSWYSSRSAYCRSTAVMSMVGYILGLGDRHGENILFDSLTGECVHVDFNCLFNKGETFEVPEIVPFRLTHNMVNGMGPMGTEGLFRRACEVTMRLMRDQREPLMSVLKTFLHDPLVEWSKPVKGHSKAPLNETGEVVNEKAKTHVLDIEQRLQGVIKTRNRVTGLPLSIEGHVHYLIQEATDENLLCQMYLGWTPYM
Sequence of ATR enzyme (Q8WXE1 whole entry partner): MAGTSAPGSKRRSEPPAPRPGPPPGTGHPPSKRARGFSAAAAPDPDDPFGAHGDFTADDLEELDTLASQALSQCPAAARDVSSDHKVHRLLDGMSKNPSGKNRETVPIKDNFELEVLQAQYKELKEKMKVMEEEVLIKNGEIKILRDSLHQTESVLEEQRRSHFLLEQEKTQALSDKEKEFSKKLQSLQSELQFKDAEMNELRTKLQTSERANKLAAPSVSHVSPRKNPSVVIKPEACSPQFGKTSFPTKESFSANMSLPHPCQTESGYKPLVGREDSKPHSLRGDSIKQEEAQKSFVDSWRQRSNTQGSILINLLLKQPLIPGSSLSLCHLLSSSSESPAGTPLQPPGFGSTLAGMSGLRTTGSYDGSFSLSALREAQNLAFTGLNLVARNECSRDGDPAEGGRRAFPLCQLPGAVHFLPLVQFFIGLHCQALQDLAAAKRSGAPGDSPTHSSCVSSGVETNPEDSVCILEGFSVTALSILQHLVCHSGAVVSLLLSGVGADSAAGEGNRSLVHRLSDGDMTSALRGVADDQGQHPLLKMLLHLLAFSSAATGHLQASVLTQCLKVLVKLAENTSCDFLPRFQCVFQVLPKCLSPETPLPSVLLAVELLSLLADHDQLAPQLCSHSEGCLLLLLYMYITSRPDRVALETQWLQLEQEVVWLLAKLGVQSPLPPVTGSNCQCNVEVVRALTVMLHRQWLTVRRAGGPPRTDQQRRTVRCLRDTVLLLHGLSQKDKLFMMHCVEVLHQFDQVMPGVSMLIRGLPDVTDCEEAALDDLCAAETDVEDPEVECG

Take `C[C@@H]1COCCN1c1cc(C2(O)CCC3(CC2)CO3)c2cnn(-c3cc[nH]n3)c2n1` (stereo partly drawn) [Compound 2, (R)-6-(6-(3-methylmorpholinyl)-1-(1H-pyrazol-3-yl)-1H-pyrazole[3,4-b]pyridin-4-yl)-1-oxaspiro[2.5]octan-6-ol]: the IC50 in the assay with LoVo cells lay within 20 to 100 nM.

Turning to `COCC#Cc1cc(N2CCOC[C@H]2C)nc2c1cnn2-c1cc[nH]n1` [Compound 5, (R)-4-(4-(3-methoxypropyl-1-alkynyl)-1-(1H-pyrazol-3-yl)-1H-pyrazole[3,4-b]pyridin-6-yl)-3-methylmorpholine], in the assay on LoVo cells, the IC50 was no more than 20 nM. In the case of `C[C@@H]1COCCN1c1cc(-c2ccc(N3CCCCC3=O)cc2)c2cnn(-c3cc[nH]n3)c2n1` [Compound 7, (R)-1-(4-(6-(3-methylmorpholinyl)-1-(1H-pyrazolyl-3-yl)-1H-pyrazolyl[3,4-b]pyridin-4-yl)phenyl)piperidin-2-one], the values for the IC50 with LoVo cells and with SNU-601 cells were 20 to 100 nM and 10 to 100 nM, respectively. As to `C[C@@H]1COCCN1c1cc(C2CCCOC2)c2cnn(-c3cc[nH]n3)c2n1` (stereo partly drawn) [Compound 13, (3R)-4-(1-(1H-pyrazol-3-yl)-4-(tetrahydro-2H-pyran-3-yl)-1H-pyrazole[3,4-b]pyridin-6-yl)-3-methylmorpholine], the IC50 with LoVo cells lay in the range of 20 to 100 nM.

For `C[C@@H]1COCCN1c1cc(-c2ccc(NC(=O)c3cccc(S(C)(=O)=O)c3)cc2)c2cnn(-c3cc[nH]n3)c2n1` [Example 145], the IC50 in the assay with LoVo cells lay in the range of 20 to 100 nM; in the assay on SNU-601 cells, 10 to 100 nM. Take `C[C@@H]1COCCN1c1cc(-c2ccc(N3CCCCCC3=O)cc2F)c2cnn(-c3cc[nH]n3)c2n1` [Example 197]: the IC50 with LoVo cells lay in the range of 20 to 100 nM; in the assay on SNU-601 cells, 10 to 100 nM.

As to `C[C@@H]1COCCN1c1cc(-c2ccc(N3CCCCC3=O)cc2C#N)c2cnn(-c3cc[nH]n3)c2n1` [Example 224], the IC50 at ATR enzyme is no more than 10 nM; with SNU-601 cells it was 10 to 100 nM. The matching figures for `Cc1cc(-c2cc(N3CCOC[C@H]3C)nc3c2cnn3-c2cc[nH]n2)ccc1NC(=O)N1CCCC1` [Example 226]: no more than 10 nM and 10 to 100 nM. As to `CCC(=O)Nc1ccc(-c2cc(N3CCOC[C@H]3C)nc3c2cnn3-c2cc[nH]n2)c(F)c1` [Example 233], the IC50 was no more than 10 nM at ATR enzyme and 10 to 100 nM in the assay on SNU-601 cells. Take `C[C@@H]1COCCN1c1cc(-c2ccc(NC(=O)C3CC3)cc2F)c2cnn(-c3cc[nH]n3)c2n1` [Example 234]: the IC50 is no more than 10 nM on ATR enzyme and 10 to 100 nM in the assay with SNU-601 cells.

For the compound `C[C@@H]1COCCN1c1cc(-c2ccc(NC(=O)C(F)F)cc2F)c2cnn(-c3cc[nH]n3)c2n1` [Example 236], the values for the IC50 at ATR enzyme and with SNU-601 cells were no more than 10 nM and 10 to 100 nM, respectively. With `C[C@@H]1COCCN1c1cc(-c2ccc(N3CC4CCC(O4)C3=O)cn2)c2cnn(-c3cc[nH]n3)c2n1` (stereo partly drawn) [Example 237], the IC50 at ATR enzyme is no more than 10 nM; in the assay with SNU-601 cells, 10 to 100 nM.

Consider `C[C@@H]1COCCN1c1cc(-c2ccc(N3CCCCC3=O)cc2F)c2cnn(-c3cc[nH]n3)c2n1` [Example 238], for which the IC50 was no more than 10 nM at ATR enzyme and 10 to 100 nM in the assay on SNU-601 cells.

Take `C[C@@H]1COCCN1c1cc(-c2c(F)cc(N3CCCCC3=O)cc2F)c2cnn(-c3cc[nH]n3)c2n1` [Example 240]: the IC50 on ATR enzyme was no more than 10 nM; in the assay on SNU-601 cells, 10 to 100 nM. With `CC1CCCN(c2cc(F)c(-c3cc(N4CCOC[C@H]4C)nc4c3cnn4-c3cc[nH]n3)c(F)c2)C1=O` (stereo partly drawn) [Example 241], the results for the IC50 at ATR enzyme and with SNU-601 cells were no more than 10 nM and 10 to 100 nM, respectively. In the same order, the values of `C[C@@H]1COCCN1c1cc(-c2ccc(N3CC=CCC3=O)cc2F)c2cnn(-c3cc[nH]n3)c2n1` [Example 243] are no more than 10 nM and 10 to 100 nM. The matching figures for `C[C@@H]1COCCN1c1cc(-c2ccc(NC(=O)N3CCCCC3)c(F)c2)c2cnn(-c3cc[nH]n3)c2n1` [Example 244]: no more than 10 nM and 10 to 100 nM.

For the compound `C[C@@H]1COCCN1c1cc(-c2ccc(NC(=O)N3CCCC3)cc2F)c2cnn(-c3cc[nH]n3)c2n1` [Example 245], the IC50 was no more than 10 nM on ATR enzyme and 10 to 100 nM in the assay with SNU-601 cells. The matching figures for `CC1CCCN1C(=O)Nc1ccc(-c2cc(N3CCOC[C@H]3C)nc3c2cnn3-c2cc[nH]n2)cc1` (stereo partly drawn) [Example 246]: no more than 10 nM and 10 to 100 nM.

On to `C[C@@H]1COCCN1c1cc(-c2ccc(NC(=O)N3CCCC3)nc2)c2cnn(-c3cc[nH]n3)c2n1` [Example 250], for which the IC50 was no more than 10 nM on ATR enzyme and 10 to 100 nM in the assay on SNU-601 cells.

As for `Cc1cc(NC(=O)N2CCCC2)cc(C)c1-c1cc(N2CCOC[C@H]2C)nc2c1cnn2-c1cc[nH]n1` [Example 251], the IC50 at ATR enzyme is no more than 10 nM; with SNU-601 cells, 10 to 100 nM. For the compound `Cc1cc(N2CC3CCC(O3)C2=O)ccc1-c1cc(N2CCOC[C@H]2C)nc2c1cnn2-c1cc[nH]n1` (stereo partly drawn) [Example 254], the figures for the IC50 on ATR enzyme and with SNU-601 cells were no more than 10 nM and 10 to 100 nM, respectively. Turning to `C[C@@H]1COCCN1c1cc(-c2ccc(N3CC4CCC(O4)C3=O)nc2)c2cnn(-c3cc[nH]n3)c2n1` (stereo partly drawn) [Example 255], the IC50 on ATR enzyme was no more than 10 nM; in the assay with SNU-601 cells, 10 to 100 nM. Consider `Cc1cc(-c2cc(N3CCOC[C@H]3C)nc3c2cnn3-c2cc[nH]n2)ccc1N1CC2CCC(O2)C1=O` (stereo partly drawn) [Example 256], for which the IC50 at ATR enzyme was no more than 10 nM; in the assay with SNU-601 cells it was 10 to 100 nM. The matching figures for `C[C@@H]1COCCN1c1cc(-c2cnc(N3CC4CCC(O4)C3=O)cc2F)c2cnn(-c3cc[nH]n3)c2n1` (stereo partly drawn) [Example 257]: no more than 10 nM and 10 to 100 nM. In the same order, the values of `C[C@@H]1COCCN1c1cc(-c2cc(NC(=O)C3CC3)on2)c2cnn(-c3cc[nH]n3)c2n1` [Example 260] are no more than 10 nM and 10 to 100 nM. In the same order, the values of `C[C@@H]1COCCN1c1cc(-c2ccc(N3C(=O)C4C=CC3C4)cc2F)c2cnn(-c3cc[nH]n3)c2n1` (stereo partly drawn) [Example 262] are no more than 10 nM and 10 to 100 nM.

In the case of `C[C@@H]1COCCN1c1cc(-c2ccc(N3C(=O)C4CCC3C4)cc2F)c2cnn(-c3cc[nH]n3)c2n1` (stereo partly drawn) [Example 263], the IC50 was no more than 10 nM at ATR enzyme and 10 to 100 nM in the assay with SNU-601 cells. In the same order, the values of `C[C@@H]1COCCN1c1cc(-c2ccc(N3C(=O)C4CCC3CC4)cc2F)c2cnn(-c3cc[nH]n3)c2n1` [Example 264] are no more than 10 nM and 10 to 100 nM. In the same order, the values of `C[C@@H]1COCCN1c1cc(N2CC(NC(=O)C3CCC3)C2)c2cnn(-c3cc[nH]n3)c2n1` [Example 265] are 10 to 50 nM and 10 to 100 nM.
